The nature of data set [1]: Stability in buffer at various pH values. In kind it is physicochemical. On the procedure: 0.3 mg of the test substance is weighed into a 2 ml HPLC vial and 0.5 ml of acetonitrile or acetonitrile/DMSO (9:1) is added. The substance is dissolved by putting the sample vessel in an ultrasonic bath for about 10 seconds. Then 0.5 ml of the respective buffer solution is added, and the sample is again treated in the ultrasonic bath.
(Buffer) solutions employed:
pH 4: 1 liter of Millipore water is adjusted to pH 4.0 with 1 N hydrochloric acid;
pH 5: 0.096 mol of citric acid and 0.2 mol of sodium hydroxide ad 1 liter of water;
pH 7.4: 90.0 g of sodium chloride, 13.61 g of potassium dihydrogen phosphate and 83.35 g of 1 N sodium hydroxide solution are made up to 1 liter with water; this solution is then further diluted 1:10 with Millipore water.
pH 8: 0.013 mol of borax and 0.021 mol of hydrochloric acid ad 1 liter of water.
5 μl portions of the test solution are analyzed by HPLC for their content of unchanged test substance, and of basic mother substance of the formula (A) formed, every hour over a period of 24 hours at 37° C. The percentage areas of the appropriate peaks are used for quantification.
HPLC method for example 1:
Agilent 1100 with DAD (G1315B), binary pump (G1312A), autosampler (G1329A), column oven (G1316A), thermostat (G1330B); column: Kromasil 100 C18, 125 mm×4 mm, 5 μm; column temperature: 30° C.; eluent A: water+5 ml perchloric acid/liter, eluent B: acetonitrile; gradient: 0 min 90% A→2.0 min 70% A→18.0 min 70% A 20.0 min 10% A→21.0 min 10% A→23.0 min 90% A→26.0 min 90% A; flow rate: 2.0 ml/min;
HPLC method for example 3:
Agilent 1100 with DAD (G1314A), binary pump (G1312A), autosampler (G1329A), column oven (G1316A), thermostat (G1330A); column: Kromasil 100 C18, 125 mm×4 mm, 5 μm; column temperature: 30° C.; eluent A: water+5 ml perchloric acid/liter, eluent B: acetonitrile; gradient: 0 min 90% A→2.0 min 64% A→18.0 min 64% A→20.0 min 10% A→21.0 min 10% A→23.0 min 90% A→26.0 min 90% A; flow rate: 2.0 ml/min UV detection: 294 nm.
HPLC method for example 11:
Agilent 1100 with DAD (G1315B), binary pump (G1312A), autosampler (G1329A), column oven (G1316A), thermostat (G1330B); column: Kromasil 100 C18, 125 mm×4 mm, 5 μm; column temperature: 30° C.; eluent A: water+5 ml of perchloric acid/liter, eluent B: acetonitrile; gradient: 0 min 90% A→2.0 min 64% A→18.0 min 64% A→20.0 min 10% A→21.0 min 10% A→23.0 min 90% A→26.0 min 90% A; flow rate: 2.0 ml/min; UV detection: 294 nm.
HPLC method for example 14:
Agilent 1100 with DAD (G1315B), binary pump (G1312A), autosampler (G1329A), column oven (G1316A), thermostat (G1330B); column: Kromasil 100 C18, 250 mm×4 mm, 5 μm; column temperature: 30° C.; eluent A: water+5 ml of perchloric acid/liter, eluent B: acetonitrile; gradient: 0 min 90% A→7.0 min 52% A→18.0 min 52% A→20.0 min 10% A→21.0 min 10% A→23.0 min 90% A -4 26.0 min 90% A; flow rate: 2.0 ml/min; UV detection: 288 nm.
HPLC method for example 18:
Agilent 1100 with DAD (G1315A), binary pump (G1312A), autosampler (G1329A), column oven (G1316A), thermostat (G1330A); column: Kromasil 100 C18, 125 mm×4 mm, 5 μm; column temperature: 30° C.; eluent A: water+5 ml of perchloric acid/liter, eluent B: acetonitrile; gradient: 0 min 90% A→6.0 min 61% A→18.0 min 61% A→20.0 min 10% A→21.0 min 10% A→23.0 min 90% A→26.0 min 90% A; flow rate: 2.0 ml/min; UV detection: 294 nm.
The ratios of the peak areas (F) at the respective time points in relation to the peak areas at the starting time are shown in Table 3 for representative exemplary embodiments: […]

The nature of data set [2]: Determination of the solubility (suspension shaken 24 h at room temperature, HPLC of supernatant). The settings on record: thermodynamic from solid. The data set is classed as physicochemical. On the procedure: The test substance is suspended in water or dilute hydrochloric acid (pH 4) or in 5% strength aqueous dextrose solution. This suspension is shaken at room temperature for 24 h. After ultracentrifugation at 224 000 g for 30 min, the supernatant is diluted with DMSO and analysed by HPLC. A two-point calibration plot of the test compound in DMSO is used for quantification.
Agilent 1100 with DAD (G1315A), quat. Pump (G1311A), autosampler CTC HTS PAL, degasser (G1322A) and column thermostat (G1316A); column: Phenomenex Gemini C18, 5 μm, 50 mm×2 mm; temperature: 40° C.; eluent A: water/phosphoric acid pH 2, eluent B: acetonitrile; flow rate: 0.7 ml/min; gradient: 0-0.5 min 85% A, 15% B; ramp 0.5-3 min 10% A, 90% B; 3-3.5 min 10% A, 90% B; ramp 3.5-4 min 85% A, 15% B; 4-5 min 85% A, 15% B.
Agilent 1100 with DAD (G1315A), quat. pump (G1311A), autosampler CTC HTS PAL, degasser (G1322A) and column thermostat (G1316A); column: VDSoptilab Kromasil 100 C18, 3.5 μm, 60 mm×2.1 mm; temperature: 30° C.; eluent A: water+5 ml of perchloric acid/liter, eluent B: acetonitrile; flow rate: 0.75 ml/min; gradient: 0-0.5 min 98% A, 2% B; ramp 0.5-4.5 min 10% A, 90% B; 4.5-6 min 10% A, 90% B; ramp 6.5-6.7 min 98% A, 2% B; 6.7-7.5 min 98% A, 2% B.
The solubilities of representative exemplary embodiments in dilute hydrochloric acid (pH 4) are shown in Table1: […]

Setting [3] is: saline or isotonic, 5% strength aqueous dextrose solution.

Where a name gives a salt, the structure may show the parent alone. A value given as a limit tells only on which side of the number the result lay.

A word on the solubility: it is how much of the substance goes into solution per volume. A higher solubility goes with a readily soluble substance.

Turning to `N#Cc1c(N)nc(SCc2coc(-c3ccc(Cl)cc3)n2)c(C#N)c1-c1ccc(OC[C@@H](COC(=O)CN)OC(=O)CN)cc1` [Example 3, (2S)-3-{4-[2-Amino-6-({[2-(4-chlorophenyl)-1,3-oxazol-4-yl]methyl}sulphanyl)-3,5-dicyanopyridin-4-yl]phenoxy}propane-1,2-diyl bis(aminoacetate) dihydrochloride], in data set [1] (pH 4, 37° C.), the “% test substance after 4 h [F(t = 4 h) × 100/F(t = 0 h)]” value (shortened to “% test substance after 4 h”) is 99% and the “% test substance after 24 h [F(t = 24 h) × 100/F(t = 0 h)]” value (“% test substance after 24 h” below) is 99%. Besides, in data set [1] (pH 7.4, 37° C.), the “% test substance after 4 h” value is on record as 93% and the “% test substance after 24 h” value stood at 67%.

`CC(C)[C@H](N)C(=O)OC[C@H](COc1ccc(-c2c(C#N)c(N)nc(SCc3coc(-c4ccc(Cl)cc4)n3)c2C#N)cc1)OC(=O)[C@@H](N)C(C)C` [Example 16, (2S)-3-{4-[2-Amino-6-({[2-(4-chlorophenyl)-1,3-oxazol-4-yl]methyl}sulphanyl)-3,5-dicyanopyridin-4-yl]phenoxy}propane-1,2-diyl(2S,2′S)-bis(2-amino-3-methylbutanoate)bis(trifluoroacetic acid) salt] gave a solubility at 24 h in data set [2] (setting [3]) of 250 µg/mL.

In data set [2] (setting [3]), `CC(C)C[C@H](N)C(=O)OC[C@H](COc1ccc(-c2c(C#N)c(N)nc(SCc3coc(-c4ccc(Cl)cc4)n3)c2C#N)cc1)OC(=O)[C@@H](N)CC(C)C` [Example 17, (2S)-3-{4-[2-Amino-6-({[2-(4-chlorophenyl)-1,3-oxazol-4-yl]methyl}sulphanyl)-3,5-dicyanopyridin-4-yl]phenoxy}propane-1,2-diyl(2S,2′S)-bis(2-amino-4-methylpentanoate)bis(trifluoroacetic acid) salt] had a solubility at 24 h of 330 µg/mL.

Take `N#Cc1c(N)nc(SCc2coc(-c3ccc(Cl)cc3)n2)c(C#N)c1-c1ccc(OC[C@@H](COC(=O)CCCCCN)OC(=O)CCCCCN)cc1` [Example 15, (2S)-3-{4-[2-Amino-6-({[2-(4-chlorophenyl)-1,3-oxazol-4-yl]methyl}sulphanyl)-3,5-dicyanopyridin-4-yl]phenoxy}propane-1,2-diyl bis(6-aminohexanoate) dihydrochloride]: the solubility at 24 h in data set [2] (setting [3]) was found to be 830 µg/mL.

Consider `C[C@@H](O)[C@H](N)C(=O)OC[C@H](COc1ccc(-c2c(C#N)c(N)nc(SCc3coc(-c4ccc(Cl)cc4)n3)c2C#N)cc1)OC(=O)[C@@H](N)[C@@H](C)O` [Example 18, (2S)-3-{4-[2-Amino-6-({[2-(4-chlorophenyl)-1,3-oxazol-4-yl]methyl}sulfanyl)-3,5-dicyanopyridin-4-yl]phenoxy}propane-1,2-diyl(2S,3R,2′S,3′R)-bis(2-amino-3-hydroxybutanoate)bis(trifluoroacetic acid) salt], for which, in data set [1] (pH 4, 37° C.), the “% test substance after 4 h” value turned out to be 100% and the “% test substance after 24 h” value worked out at 95%. Also, in data set [1] (pH 7.4, 37° C.), the “% test substance after 4 h” value is reported as 95% and the “% test substance after 24 h” value came out at 72%. Besides, the solubility at 24 h in data set [2] (setting [3]) came to 240 µg/mL.

In data set [2] (aqueous buffer, dilute hydrochloric acid (pH 4)), `C[C@@H](N)C(=O)OC[C@H](COc1ccc(-c2c(C#N)c(N)nc(SCc3coc(-c4ccc(Cl)cc4)n3)c2C#N)cc1)OC(=O)[C@@H](C)N` [Example 9, (2S)-3-{4-[2-Amino-6-({[2-(4-chlorophenyl)-1,3-oxazol-4-yl]methyl}sulfanyl)-3,5-dicyanopyridin-4-yl]phenoxy}propane-1,2-diyl(2R,2′R)-bis(2-aminopropanoate)dihydrochloride] registered a solubility at 24 h of 535 µg/mL.

Consider `C[C@H](N)C(=O)OC[C@@H](COc1ccc(-c2c(C#N)c(N)nc(SCc3coc(-c4ccc(Cl)cc4)n3)c2C#N)cc1)OC(=O)[C@H](C)N` [Example 11, (2R)-3-{4-[2-Amino-6-({[2-(4-chlorophenyl)-1,3-oxazol-4-yl]methyl}sulphanyl)-3,5-dicyanopyridin-4-yl]phenoxy}propane-1,2-diyl(2S,2′S)-bis(2-aminopropanoate)dihydrochloride], for which, in data set [1] (pH 4, 37° C.), the “% test substance after 4 h” value is on record as 96% and the “% test substance after 24 h” value is on record as 96%. In data set [1] (pH 7.4, 37° C.), the “% test substance after 4 h” value worked out at 84% and the “% test substance after 24 h” value is 44%.

For `N#Cc1c(N)nc(SCc2coc(-c3ccc(Cl)cc3)n2)c(C#N)c1-c1ccc(OC[C@@H](COC(=O)CCCN)OC(=O)CCCN)cc1` [Example 14, (2S)-3-{4-[2-Amino-6-({[2-(4-chlorophenyl)-1,3-oxazol-4-yl]methyl}sulphanyl)-3,5-dicyanopyridin-4-yl]phenoxy}propane-1,2-diyl bis(4-aminobutanoate)dihydrochloride], the “% test substance after 4 h” value is listed as 97% in data set [1] (pH 4, 37° C.) and 93% in data set [1] (pH 7.4, 37° C.). Further, the “% test substance after 24 h” value in data set [1] (pH 4, 37° C.) stood at 92%; in data set [1] (pH 7.4, 37° C.), 74%. Moreover, the solubility at 24 h in data set [2] (setting [3]) was determined as 540 µg/mL.

In data set [2] (setting [3]), `CC(C)[C@H](N)C(=O)OC[C@@H](COc1ccc(-c2c(C#N)c(N)nc(SCc3coc(-c4ccc(Cl)cc4)n3)c2C#N)cc1)OC(=O)[C@@H](N)C(C)C` [Example 10, (2R)-3-{4-[2-Amino-6-({[2-(4-chlorophenyl)-1,3-oxazol-4-yl]methyl}sulphanyl)-3,5-dicyanopyridin-4-yl]phenoxy}propane-1,2-diyl(2S,2′S)-bis(2-amino-3-methylbutanoate)-dihydro-chloride] came in with a solubility at 24 h greater than 500 µg/mL.

On to `N#Cc1c(N)nc(SCc2coc(-c3ccc(Cl)cc3)n2)c(C#N)c1-c1ccc(OC[C@@H](COC(=O)[C@@H](N)CCCCN)OC(=O)[C@@H](N)CCCCN)cc1` [Example 13, (2S)-3-{4-[2-Amino-6-({[2-(4-chlorophenyl)-1,3-oxazol-4-yl]methyl}sulphanyl)-3,5-dicyanopyridin-4-yl]phenoxy)propane-1,2-diyl(2S,2′S)-bis(2,6-diaminohexanoate)dihydrochloride], for which, in data set [2] (setting [3]), the solubility at 24 h stood at 710 µg/mL.

Values taken from patent publication US20110237629A1, “AMINO ACID ESTER PRODRUGS AND THE USE THEREOF” (Bayer Schering Pharma Aktiengesellschaft, priority 2008, published 2011).
